Two molecules from US12152012B2, “BRAG2 inhibitors and applications thereof” (CENTRE NATIONAL DE LA RECHERCHE SCIENTIFIQUE, priority 2018, dated 2024) can be followed below.

The subject of assay [1] is GM130 (cis-Golgi marker) in Hela cells. The assay is described as follows: Immunostaining and confocal microscopy of Hela cells. The settings on record: for Reversibility of GM130 dispersion: 50 μM 30 min, then 30 min in fresh medium; for Dispersion of GM130 marker: 50 μM, 30 min. Format: cell-based, human. The method, then: (§1) FIG. 1. Bragsin2 affects Arf pathways in cells • a. Chemical structures of Bragsin1 and Bragsin2 and derivatives used in this study. Chemical synthesis and structural characterization of the compounds are described in example 6. • b. Bragsin2 disperses the TGN46 and GM130 markers. HeLa cells were treated with either DMSO (0.25%) or Bragsin2 (50 μM) for 30 min, immunostained for TGN46, GM130 or EEA1 (green channel) and analysed by confocal microscopy. Dispersion of GM130 and TGN46 by Bragsin2 is reversible. Hela cells were treated as in FIG. 1a and were incubated for an additional 30 min in fresh medium (wash panel) prior to immunostaining and confocal microscopy analysis. Expression of Arf-mCherry constructs carrying an activating mutation rescues the effect of Bragsin2. Hela cells were transfected with constitutively active Q/L mutants of Arf-mCherry. Note the difference between non-transfected cells (white asterisk) and transfected cells. Scale bars, 10 μm.
(§2) Hela cells were grown in Dulbecco's modified Eagle's medium supplemented with Glutamax™ and 10% fetal bovine serum (Invitrogen). For immunofluorescence studies, cells were grown on Labtek glass slides (Nunc) and transfected for 18 to 24 h using Lipofectamine 2000 (Invitrogen), according to the supplier's instructions. When specified, cells were treated with the indicated concentration of small molecule or corresponding volume of vehicle (DMSO) in growth medium for 30 min at 37° C.
(§3) Immunostaining procedure was as described in (Viaud, J. et al. Structure-based discovery of an inhibitor of Arf activation by Sec7 domains through targeting of protein-protein complexes. Proc Natl Acad Sci USA 104, 10370-5 (2007)) except that secondary antibody incubation was performed for 1h using Alexa 488-conjugated goat anti-mouse (1:600) or donkey anti-sheep (1:500) IgG and Alexa 647-conjugated phalloidin (1:100). Anti-GM130 was used at dilution 1:200. Images were bidirectionally recorded using an inverted Leica TCS SP8 laser-scanning confocal microscope with a 100× (N. A. 1.40) oil objective (HCX APO, Leica). Fluorochromes were detected sequentially using excitation laser lines at 488 nm (Alexa 488), 594 nm (mCherry) and 633 nm (Alexa 647). Stacks were generated using a z-step of 0.5 μm and processed using Fiji/ImageJ (Schindelin, J. et al. Fiji: an open-source platform for biological-image analysis. Nat Methods 9, 676-82 (2012)). Images are representative of at least two independent experiments.

Assay [2] relates to TGN46 (trans-Golgi network marker) in Hela cells. The assay is described as above. The settings on record: for Reversibility of TGN46 dispersion / Dispersion of TGN46 marker: Hela cells; for Reversibility of TGN46 dispersion: 50 μM 30 min, then 30 min in fresh medium; for Dispersion of TGN46 marker: 50 μM, 30 min; for Rescue of compound-induced TGN46 dispersion by constitutively active Arf1, Arf5, Arf6 Q/L-mCherry: transfected Hela cells. It is filed as cell-based, human. The method, then: as §1, §2, §3

For the molecule `Cc1ccc2oc(C(F)(F)F)cc(=O)c2c1[N+](=O)[O-]` [Bragsin1, 6-methyl-5-nitro-2-(trifluoromethyl)-4H-chromen-4-one], in assay [1], the “Reversibility of GM130 dispersion” value is on record as “reversible” and the “Dispersion of GM130 marker” value is “disperses”. Moreover, in assay [2], the “Reversibility of TGN46 dispersion” value is on record as “reversible”; the “Dispersion of TGN46 marker” value was “disperses”; the “Rescue of compound-induced TGN46 dispersion by constitutively active Arf1, Arf5, Arf6 Q/L-mCherry” value is on record as “rescues”.

Take `COc1ccc2oc(C(F)(F)F)cc(=O)c2c1[N+](=O)[O-]` [Bragsin2, 6-methoxy-5-nitro-2-(trifluoromethyl)-4H-chromen-4-one]: in assay [1], the “Reversibility of GM130 dispersion” value was “reversible” and the “Dispersion of GM130 marker” value is “disperses”. In assay [2], the “Reversibility of TGN46 dispersion” value is reported as “reversible”; the “Dispersion of TGN46 marker” value is on record as “disperses”; the “Rescue of compound-induced TGN46 dispersion by constitutively active Arf1, Arf5, Arf6 Q/L-mCherry” value is “rescues”.
